Where two headings read alike, the source gives them in different places.
What was measured:
rat portal vein = assay: Inhibition of spontaneous mechanical activity (twitch height and frequency) in isolated rat portal vein; settings: for IC50: Rattus norvegicus
Method: (§1) A bicarbonate buffered physiological salt solution (PSS) was used containing, in mM: 118.4 NaCl, 4.7 KCl, 1.2 KH₂PO₄ 1.2 MgSO₄, 2.5 CaCl₂, 25.0 NaHCO₃ and 11.7 glucose. PSS with varying concentrations of KCl was prepared by addition of appropriate amounts of KCl from a 4M KCl stock. Calcium free PSS was prepared by deletion of CaCl₂ and addition of 1.0 mM [ethylenebis(oxyethylenitrilo)]-tetraacetic acid (EGTA). All solutions were aerated with 95% O₂-5% CO₂ such that the pH was 7.4. Experiments were conducted at 37°C.
Stock solutions of test compounds were prepared daily. The compounds were dissolved in water or DMSO as appropriate.
(§2) Normotensive male Wistar Kyoto rats approximately 14 weeks old were sacrificed using CO₂. The thoracic aorta and portal vein were quickly removed and placed into cold PSS. Blood was rinsed from the lumen and adherent connective tissue was carefully removed. Rings approximately 4 mm in width were cut from each aorta. The endothelium was mechanically removed by inserting a wire into the lumen and gently rolling the ring on filter paper moistened with PSS. The aortic rings were mounted on stainless steel tissue wires attached to tissue holders. An intact segment of portal vein extending approximately 2 cm from the liver hilus was mounted longitudinally on tissue holders. The tissues were suspended in individual 20 ml organ chambers and connected to a micrometer for control of tissue length and a Grass FT.03 force transducer. Mechanical responses were recorded on Grass Model 7D polygraphs.
The rat portal vein segments were gradually stretched over a 1 to 2 hour equilibration period to a preload of 0.5 g. When the frequency and height of the spontaneous twitches had stabilized, propranolol (1 µM) was added and cumulative concentration response curves were obtained for the test compounds. A steady state reduction of the twitch height and frequency was reached before the next concentration was added.
Force development by the portal vein segments was determined at the peak of the twitch. The effect of each compound on force was calculated relative to the force in its absence. IC₅₀ values were determined at the concentration where 50% of the maximal inhibition force was attained. In addition, the relative frequency of twitches was determined by counting the number of twitches in a 5 minute period following drug addition and determining the change in rate from basal (absence of test compund). Results were then calculated as % inhibition of twitch frequency. Data are report as mean ± SEM.

[1] = system: isolated, buffer perfused rat hearts; assay: Global ischemia (25 min) and reperfusion (30 min) in isolated, buffer perfused rat hearts (Langendorff)
Method: For the determination of the effect of the potassium channel activators pinacidil and BRL 34915 (cromakalim) on post-ischemic necrosis and function, isolated, buffer perfused rat hearts were used. Male Sprague-Dawely rats (450-550 g) were used for all experiments. The rats were anesthetized using 30 mg/kg sodium pentobarbital (i.p.) They were intubated and then treated with i.v. heparin (1000 U/kg). While being mechanically ventilated, their hearts were perfused in situ via retrogade cannulation of the aorta. The hearts were then excised and quickly moved to a Langendorff apparatus where they were perfused with Krebs-Henseleit (1.25 mM CaCl₂) buffer at a constant pressure (80 mmHg). A saline-filled latex balloon attached to a metal cannula was then inserted into the left ventricle and connected to a Statham pressure transducer for measurement of left ventricular systolic and developed (LVDP) pressure. The hearts were allowed to equilibrate for 15 minutes at which time end diastolic pressure (EDP) was adjusted to 5 mm Hg and this was maintained for 5 minutes. Pre-ischemia, pre-drug function (HRXLVDP/1000), heart rate, and coronary blood flow (extracorporeal electromagnetic flow probe, Carolina Medical Electronics, King, N.C.) were then determined.
Once the baseline measurements were made, the hearts were divided into 4 groups (n=4-6 each): 1. Hearts receiving vehicle. 2. Hearts receiving 1, 10 or 100 µM pinacidil. 3. Hearts receiving 1 or 7 µM BRL 34915. 4. Hearts receiving 1, 10 or 100 µM nicroandil. Each heart received its respective treatment in the perfusion buffer for 10 minutes at which time functional and flow parameters were again measured. All hearts were then made globally ischemic by shutting off the perfusate for 25 minutes. Reperfusion was then instituted with the normal nondrug treated buffer. Reperfusion was maintained for 30 minutes at which time flow and functional parameters were again measured. Lactate dehydrogenase (LDH) release into the reperfusion effluent was measured and this is a measure of myocardial cell death or necrosis. The severity of ischemia was determined by the return of function during reperfusion, mitigation of contracture (lower end diastolic pressure) and LDH release.

[2] = system: awake dogs with acute myocardial infarction; settings: cited from earlier work
aorta = assay: Comparison of potency in aorta (phenylephrine contractions) and portal vein; parameters: species or system rat; settings: portal vein compared with aorta
Method: as §1
as §2, with “The tissues were suspended in individual 20 ml organ chambers and connected to a micrometer for control of tissue length and a Grass FT.03 force transducer.” left out

[3] = system: Ischemic-Reperfused Myocardium; settings: infusion prior to and during a 15-min coronary occlusion; 3-h reperfusion period; cited from earlier work
[4] = inhibition of spontaneous mechanical activity (twitch height), cumulative concentration response curves, propranolol 1 µM present, N=4 (cromakalim, pinacidil N=5), read-out: IC₅₀

CC1(C)Oc2ccc(C#N)cc2[C@@H](N2CCCC2=O)[C@@H]1O (racemic) [Cromakalim, (±)-6-cyano-3,4-dihydro-2,2-dimethyl-trans-4-(2-oxo-1-pyrrolidyl)-2H-benzo[b]-pyran-3-ol]
IC50 (rat portal vein; [4]): 0.12 µM | LDH release and thus necrosis ([1]; 7 µM): reduced | myocardial function during reperfusion ([1]; 7 µM): improved

CC1(C)Oc2ccc(C#N)cc2[C@@H](N)[C@@H]1O (relative stereo) [SQ 32,844, (trans)-4-amino-3,4-dihydro-3-hydroxy-2,2-dimethyl-2H-1-benzopyran-6-carbonitrile]
IC50 (rat portal vein; [4]): 38 µM

CC(NC(=NC#N)Nc1ccncc1)C(C)(C)C (single isomer, unassigned; (+)) [Pinacidil, (+)-2-cyano-1-(4-pyridyl)-3-(1,2,2-trimethylpropyl)guanidine]
IC50 (rat portal vein; [4]): 0.15 µM | post-ischemic cardiac function ([1]; 10 µM, 30 min reperfusion): significantly improved | reperfusion end diastolic pressure (EDP) (contracture) ([1]; 10 µM, 30 min reperfusion): reduced | toxic effects (before ischemia reduction in function) ([1]; 100 µM): a tendency for toxic effects | anti-ischemic activity ([1]; 1 and 100 µM in perfusion buffer for 10 min before ischemia): did not show any marked anti-ischemic activity | necrosis as measured by lactate dehydrogenase (LDH) release ([1]; at the doses used (1, 10 or 100 µM)): did not significantly reduce necrosis | blood flow to ischemic myocardium [2]: no effect | infarct size [2]: no effect

Nc1nc2c(nc(Br)n2[C@@H]2O[C@@H]3COP(=O)(O)O[C@H]3[C@H]2O)c(=O)[nH]1 [8-Bromo cyclic GMP]
IC50 (rat portal vein; [4]): 43 µM | twitch frequency (rat portal vein; frequency of spontaneous contractions with increasing concentration): reduced twitch frequency

O=C(NCCO[N+](=O)[O-])c1cccnc1 [Nicorandil, N-(2-hydroxyethyl)nicotinamide nitrate ester]
IC50 (rat portal vein; values restated in text, read-out: IC₅₀ (50% of the maximum inhibition) in the inhibition of spontaneous mechanical activity in rat portal vein): 5.1 µM | IC50 (rat portal vein; [4]): 5.1 µM | potency in the aorta and portal vein (aorta): reduced potency | effectiveness (anti-ischemic) ([1]; any dose used (1, 10 or 100 µM)): not showed to be effective | recovery of mycocardial segment function (%SS, dL/dt) [3]: significantly improved recovery

O=C(O)c1cccnc1 [nicotinic acid]
recovery of mycocardial segment function (%SS, dL/dt) [3]: significantly improved recovery
